This note sets out measurements from patent US20250295652A1, “Inhibitors of Molluscum Contagiosum Infection and Methods Using the Same” (priority 2021, published 2025).

The test system of the test is mD4-VV surrogate virus. Put plainly: microbe, parasite or virus in culture. Type of test: cell-based, mD4/vaccinia hybrid virus. To be noted: for EC50: Hybrid virus, BSC-1, read-out: mD4 EC50.

Regarding `CCC(C(=O)Nc1sc(C(N)=O)c(C)c1C(=O)OC)c1ccccc1OC` (stereo not drawn) [Compound 95, Methyl 2-(2-(2-methoxyphenyl)butanamido)-5-carbamoyl-4-methylthiophene-3-carboxylate], the EC50 was found to be 21.2 µM.
Take `CCC(C(=O)Nc1sc(C(N)=O)c(C)c1C(=O)OC)c1cccc(OC)c1` (stereo not drawn) [Compound 96, Methyl 2-(2-(3-methoxyphenyl)butanamido)-5-carbamoyl-4-methylthiophene-3-carboxylate]: the “% @ 25 uM (mD4)” value was determined as 56% @ 25 uM.
As for `CCC(C(=O)Nc1sc(C(N)=O)c(C)c1C(=O)OC)c1ccc(OC)cc1` (stereo not drawn) [Compound 97, Methyl 2-(2-(4-methoxyphenyl)butanamido)-5-carbamoyl-4-methylthiophene-3-carboxylate], the “% @ 25 uM (mD4)” value amounted to 37% @ 25 uM.
Take `CCC(C(=O)Nc1sc(C(N)=O)c(C)c1C(=O)OC)c1cccc(F)c1` (stereo not drawn) [Compound 98, Methyl 2-(2-(3-fluorophenyl)butanamido)-5-carbamoyl-4-methylthiophene-3-carboxylate]: the EC50 was 18 µM.
`CCOC(=O)c1nnsc1NC(=O)C(CC)c1ccccc1` (stereo not drawn) [Compound 106, 5-(2-Phenyl-butyrylamino)-[1,2,3]thiadiazole-4-carboxylic acid ethyl ester]: the “% @ 25 uM (mD4)” value turned out to be 40% @ 25 uM.
In the case of `CCC(C(=O)Nc1sccc1C(=O)OC)c1ccccc1` (stereo not drawn) [Compound 112, Methyl 2-(2-phenylbutanamido)thiophene-3-carboxylate], the “% @ 25 uM (mD4)” value amounted to 59% @ 25 uM.
As for `COC(=O)c1ccsc1NC(=O)N1CCN(c2ccccn2)CC1` [Compound 114, Methyl 2-(4-(pyridin-2-yl)piperazine-1-carboxamido)thiophene-3-carboxylate], the “% @ 25 uM (mD4)” value was 32% @ 25 uM.
With `CCC(C(=O)Nc1sc(C(N)=O)c(C)c1C(=O)NCc1ccc(Cl)cc1)c1ccccc1` (stereo not drawn) [Compound 115, 2-(2-Phenylbutanamido)-N3-(4-chlorobenzyl)-4-methylthiophene-3,5-dicarboxamide], the EC50 stood at 11 µM.
As to `COC(=O)c1c(NC(=O)N2CCN(c3ccccn3)CC2)sc(C(N)=O)c1C` [Compound 116, Methyl 2-(4-(pyridin-2-yl)piperazine-1-carboxamido)-5-carbamoyl-4-methylthiophene-3-carboxylate], the “% @ 25 uM (mD4)” value came to 30% @ 25 uM.
Consider `O=C(Nc1snnc1-c1ccc(C(F)(F)F)cc1)N1CCN(c2ccccn2)CC1` [Compound 118, 4-Pyridin-2-yl-piperazine-1-carboxylic acid [4-(4-trifluoromethyl-phenyl)-[1,2,3]thiadiazol-5-yl]-amide], for which the concentration giving a half-maximal response (EC50) turned out to be 4 µM.
Regarding `O=C(NCc1ccccc1)c1nnsc1NC(=O)N1CCN(c2ccccc2)CC1` [Compound 123, 4-Phenyl-piperazine-1-carboxylic acid (4-benzylcarbamoyl-[1,2,3]thiadiazol-5-yl)-amide], the “% @ 25 uM (mD4)” value amounted to 44% @ 25 uM.
As for `Cc1ccc(CNC(=O)c2nnsc2NC(=O)N2CCN(c3ccccn3)CC2)cc1` [Compound 124, 4-Pyridin-2-yl-piperazine-1-carboxylic acid [4-(4-methyl-benzylcarbamoyl)-[1,2,3]thiadiazol-5-yl]-amide], the EC50 is 14.5 µM.
For `CCOC(=O)c1ncsc1NC(=O)N1CCN(c2ccccn2)CC1` [Compound 127, Ethyl 5-(4-(pyridin-2-yl)piperazine-1-carboxamido)thiazole-4-carboxylate], the EC50 was 29.5 µM.
The same measure, in the same setting: in the case of `O=C(NCc1ccccc1)c1ccsc1NC(=O)N1CCN(c2ccccn2)CC1` [Compound 130, N-(3-(Benzylcarbamoyl)thiophen-2-yl)-4-(pyridin-2-yl)piperazine-1-carboxamide] it was 32.8 µM; in that of `Cc1c(C(N)=O)sc(NC(=O)N2CCN(c3ccccn3)CC2)c1C(=O)NCc1ccccc1` [Compound 131, 2-(4-(pyridin-2-yl)piperazine-1-carboxamido)-N3-benzyl-4-methylthiophene-3,5-dicarboxamide], 31.8 µM.
Still for that read-out and setting: as for `O=C(Nc1snnc1C(=O)NCc1ccc(Cl)cc1)Oc1ccccc1` [Compound 132, [4-(4-Chloro-benzylcarbamoyl)-[1,2,3]thiadiazol-5-yl]-carbamic acid phenyl ester], the figure is 16.4 µM.
In the case of `CCC(C(=O)Nc1snnc1C(=O)NCc1ccc(Cl)cc1)c1ccccc1` (stereo not drawn) [Compound 134, 5-(2-Phenyl-butyrylamino)-[1,2,3]thiadiazole-4-carboxylic acid 4-chloro-benzylamide], the half-maximal effective concentration (EC50) was found to be 11.5 µM.
For the compound `CCC(C(=O)Nc1snnc1C(=O)NCc1ccccc1)c1ccccc1` (stereo not drawn) [Compound 135, 5-(2-Phenyl-butyrylamino)-[1,2,3]thiadiazole-4-carboxylic acid benzylamide], the EC50 was found to be 18.5 µM.
For `CCC(C(=O)Nc1snnc1-c1ccccc1F)c1ccccc1` (stereo not drawn) [Compound 153, N-[4-(2-Fluoro-phenyl)-[1,2,3]thiadiazol-5-yl]-2-phenyl-butyramide], the concentration giving a half-maximal response (EC50) came to 10.2 µM.
As to `CCC(C(=O)Nc1snnc1-c1ccc(F)cc1)c1ccccc1` (stereo not drawn) [Compound 154, N-[4-(4-Fluoro-phenyl)-[1,2,3]thiadiazol-5-yl]-2-phenyl-butyramide], the concentration giving a half-maximal response (EC50) is 32 µM.
For the compound `CCC(C(=O)Nc1snnc1-c1ccccc1)c1ccccc1` (stereo not drawn) [Compound 155, 2-Phenyl-N-(4-phenyl-[1,2,3]thiadiazol-5-yl)-butyramide], the EC50 was found to be 16.2 µM.
`CCC(C(=O)Nc1scnc1C(=O)NCc1ccccc1)c1ccccc1` (stereo not drawn) [Compound 162, 5-(2-Phenylbutanamido)-N-benzylthiazole-4-carboxamide]: the EC50 turned out to be 18.1 µM.
Consider `CCOC(=O)c1ncsc1NC(=O)C(CC)c1ccccc1` (stereo not drawn) [Compound 165, Ethyl 5-(2-phenylbutanamido)thiazole-4-carboxylate], for which the “% @ 25 uM (mD4)” value was 30.6% @ 25 uM.
As to `O=C(NCc1ccccc1)c1nnsc1NC(=O)N1CCN(c2ccccc2F)CC1` [Compound 169, 4-(2-Fluoro-phenyl)-piperazine-1-carboxylic acid (4-benzylcarbamoyl-[1,2,3]thiadiazol-5-yl)-amide], the EC50 was determined as 32.7 µM.
As to `CCC(C(=O)NC(=O)c1sc(N)c(C(=O)OC)c1C)c1ccc(F)cc1` (stereo not drawn) [Compound 174, Methyl 5-(2-(4-fluorophenyl)butanoylcarbamoyl)-2-amino-4-methylthiophene-3-carboxylate], the half-maximal effective concentration (EC50) is 20.5 µM.
Consider `O=C(CCCc1ccccn1)Nc1snnc1C(=O)NCc1ccc(Cl)cc1` [Compound 175, 5-(4-(Pyridin-2-yl)butanamido)-N-(4-chlorobenzyl)-1,2,3-thiadiazole-4-carboxamide], for which the concentration giving a half-maximal response (EC50) stood at 15.5 µM.
As to `CCC(C(=O)Nc1sc(C(=O)NC(C)c2ccncc2)c(C)c1C(=O)OC)c1ccc(F)cc1` (stereo not drawn) [Compound 186, methyl 2-(2-(4-fluorophenyl)butanamido)-4-methyl-5-((1-(pyridin-4-yl)ethyl)carbamoyl)thiophene-3-carboxylate], the EC50 came out at 20 µM.
`CCC(C(=O)Nc1sc(C(=O)NCCc2cccnc2)c(C)c1C(=O)OC)c1ccc(F)cc1` (stereo not drawn) [Compound 187, methyl 2-(2-(4-fluorophenyl)butanamido)-4-methyl-5-((2-(pyridin-3-yl)ethyl)carbamoyl)thiophene-3-carboxylate]: the concentration giving a half-maximal response (EC50) was found to be 13.8 µM.
For the compound `CCC(C(=O)Nc1sc(C(N)=O)c(C)c1C(=O)OC)c1ccc(C)cc1` (stereo not drawn) [Compound 188, Methyl 5-carbamoyl-4-methyl-2-(2-(p-tolyl)butanamido)thiophene-3-carboxylate], the half-maximal effective concentration (EC50) stood at 64.1 µM.
For `CCC(C(=O)Nc1sc(C(N)=O)c(C)c1C(=O)OC)c1ccccc1F` (stereo not drawn) [Compound 189, Methyl 5-carbamoyl-2-(2-(2-fluorophenyl)butanamido)-4-methylthiophene-3-carboxylate], the EC50 turned out to be 15.2 µM.
On the same count and under the same terms, in the case of `CCC(C(=O)Nc1sc(C(N)=O)c(C)c1C(=O)OC)c1ccc(C(F)(F)F)cc1` (stereo not drawn) [Compound 190, methyl 5-carbamoyl-4-methyl-2-(2-(4-(trifluoromethyl)phenyl)butanamido)thiophene-3-carboxylate] it was 4.8 µM; in that of `CCC(C(=O)Nc1sc(C(N)=O)c(C)c1C(=O)OC)c1ccc(Cl)cc1` (stereo not drawn) [Compound 191, Methyl 5-carbamoyl-2-(2-(4-chlorophenyl)butanamido)-4-methylthiophene-3-carboxylate], 11.4 µM.
Still for that read-out and setting: in the case of `CCC(C(=O)Nc1sc(C(=O)OC(C)(C)C)c(C)c1C(=O)OC)c1ccc2c(c1)OCO2` (stereo not drawn) [Compound 192, 2-tert-butyl 4-methyl 5-(2-(benzo[d][1,3]dioxol-5-yl)butanamido)-3-methylthiophene-2,4-dicarboxylate] it was above 50 µM.
Same read-out and setting: as for `CCC(C(=O)Nc1sc(C(N)=O)c(C)c1C(=O)OC)c1ccc2c(c1)OCO2` (stereo not drawn) [Compound 193, Methyl 2-(2-(benzo[d][1,3]dioxol-5-yl)butanamido)-5-carbamoyl-4-methylthiophene-3-carboxylate], the figure is above 50 µM; as for `CCC(C(=O)Nc1sc(C(=O)OC(C)(C)C)c(C)c1C(=O)OC)c1cc(F)cc(F)c1` (stereo not drawn) [Compound 194, 2-tert-butyl 4-methyl 5-(2-(3,5-difluorophenyl)butanamido)-3-methylthiophene-2,4-dicarboxylate], above 50 µM; as for `CCC(C(=O)Nc1sc(C(N)=O)c(C)c1C(=O)OC)c1cc(F)cc(F)c1` (stereo not drawn) [Compound 195, Methyl 2-(2-(3,5-difluorophenyl)butanamido)-5-carbamoyl-4-methylthiophene-3-carboxylate], 25.8 µM.
As for `CCC(C(=O)Nc1sc(C(N)=O)c(C)c1C(=O)OC)c1ccc(C#N)cc1` (stereo not drawn) [Compound 197, Methyl 2-(2-(4-cyanophenyl)butanamido)-5-carbamoyl-4-methylthiophene-3-carboxylate], the 50% effective concentration (EC50) turned out to be 42 µM.
On the same count and under the same terms, in the case of `CCC(C(=O)Nc1sc(C(=O)OC(C)(C)C)c(C)c1C(=O)OC)c1ccc(C(F)(F)F)cc1` (stereo not drawn) [Compound 198, 2-tert-butyl 4-methyl 5-(2-(4-(trifluoromethyl)phenyl)butanamido)-3-methylthiophene-2,4-dicarboxylate] it was above 50 µM; in that of `CCC(C(=O)Nc1sc(C(=O)N2CCNCC2)c(C)c1C(=O)OC)c1ccc(F)cc1` (stereo not drawn) [Compound 201, Methyl 2-[2-(4-fluorophenyl)butanamido]-4-methyl-5-(piperazine-1-carbonyl)thiophene-3-carboxylate], above 25 µM.

The EC50 is the concentration needed to bring the measured effect to its halfway point.
